Data on four compounds can be found in ChEMBL document CHEMBL1132729.

One may read the inhibition as the percentage by which the read-out fell short of the control.

The structures appear in SMILES notation. Activity calls are given as the source filed them. The rule behind the calls is not given here.

The target of assay [1] is T1, Lipoprotein lipase (Bos taurus) (UniProt P11151).
T1 sequence (whole entry): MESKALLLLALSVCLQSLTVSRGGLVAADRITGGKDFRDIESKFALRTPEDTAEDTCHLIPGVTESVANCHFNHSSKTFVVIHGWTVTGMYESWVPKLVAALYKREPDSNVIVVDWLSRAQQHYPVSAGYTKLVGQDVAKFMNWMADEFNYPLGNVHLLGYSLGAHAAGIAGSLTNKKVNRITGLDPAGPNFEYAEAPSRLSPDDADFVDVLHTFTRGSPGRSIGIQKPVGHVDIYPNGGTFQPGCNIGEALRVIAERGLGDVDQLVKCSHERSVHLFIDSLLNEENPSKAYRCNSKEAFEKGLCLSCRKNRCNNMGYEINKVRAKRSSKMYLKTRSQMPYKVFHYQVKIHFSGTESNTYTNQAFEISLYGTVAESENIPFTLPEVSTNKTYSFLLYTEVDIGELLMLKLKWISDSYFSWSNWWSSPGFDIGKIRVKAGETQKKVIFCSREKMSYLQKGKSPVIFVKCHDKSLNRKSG
Briefly: Percent inhibition of compound against Lipoprotein lipase(LPL) was evaluated; No significant inhibition.

The target in assay [2] is T1, Lipoprotein lipase (Bos taurus). Briefly: Percent inhibition of compound against Lipoprotein lipase(LPL) at 3h was evaluated. Particulars: concentration not given here.
Assay [3] shares this target. Put plainly: Percent inhibition of compound against Lipoprotein lipase(LPL) at 10 uM was evaluated.

With `CCCCCCS(=O)(=O)ON1C(=O)CCC1=O`, the inhibition result in assay [1] is “No inhibition”.

As for `CCCCCCS(=O)(=O)Oc1ccc([N+](=O)[O-])cc1`, the inhibition result in assay [1] is “No inhibition”. The same measure, in the same setting: the entry for `CCCCCCCCCCCCS(=O)(=O)F` is “inactive”. Regarding `CCCCCCCCCCCCCCCCS(=O)(=O)F`, the values for the inhibition in assay [2] and in assay [3] were 90% and 50%, respectively.
